Common to all, as to assay: NCI anticancer screen, dose series, 48 h
Test [1] deals with ACHN.
Test [2] concerns SK-MEL-28.
The subject of test [3] is UACC-62.
Test [4] relates to SK-OV-3.
In test [5] the test system is Hs-578T.
In test [6] the test system is SR.
The test system of test [7] is SF-539.
Test [8] relates to MDA-MB-231.
The subject of test [9] is MOLT-4.
Test [10] concerns CAKI-1.
The test system of test [11] is SN12C.
Test [12] relates to MDA-N.
Test [13] relates to SF-295.
The subject of test [14] is TK-10.
Test [15] relates to U-251.
The test system of test [16] is NCI/ADR-RES.
Test [17] deals with SK-MEL-2.
Test [18] relates to HCC 2998.
The test system of test [19] is MCF7.
The test system of test [20] is LOX IMVI.

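1) Cells in 96-well plates. 2) Compound, 48 h, 5 concentrations. 3) Linear interpolation between surrounding doses. 4) Unreached endpoint = highest concentration. Abbreviation: GI50, concentration required for 50% inhibition of growth.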 Calls of active or inactive are those of the source. No stated cut-off is given here; in the data, active = GI50 up to about 1.1 µM and inactive = higher. A value given as a limit tells only on which side of the number the result lay.

For the molecule `Clc1nc(Nc2nc3ccccc3[nH]2)nc(Cl)c1-c1ccccc1`, the GI50 in test [1] was 15.8 µM (inactive); in test [2] it was 11.7 µM (inactive); in test [3], 18.1 µM (inactive); in test [4] it was 22.1 µM (inactive); in test [5], 21.5 µM (inactive); in test [6], 29.1 µM (inactive). In addition, the GI50 is 18.1 µM (inactive) in test [7]; 12.7 µM (inactive) in [8]; 76 µM (inactive) in test [9]; 31.1 µM (inactive) in test [10]; 12.6 µM (inactive) in test [11]; 10.3 µM (inactive) in test [12]. In addition, the GI50 in [13] was 18 µM (inactive); in test [14], 39.4 µM (inactive); in test [15], 15.9 µM (inactive); in [16], 27.7 µM (inactive); in test [17] it was 23.3 µM (inactive).
Turning to `CCOC(=O)[C@H]1O[C@@H]1C(=O)NC(CC(C)C)C(=O)NCCC(C)C` (some centres undefined), the GI50 in test [2], in test [3], in [4], in test [5], in test [18] and in [7] was > 100 µM (inactive) in each case. In addition, the GI50 in test [8], in test [9], in test [10], in [19], in [11] and in test [12] was > 100 µM (inactive) in each case. Besides, the GI50 in [13], in [15] and in test [16] was > 100 µM (inactive) throughout.
In the case of `CCCCSC1=N/C(=C\c2ccco2)C(Cl)=N1`, the GI50 in test [1], in test [2], in [3], in test [4], in test [5] and in test [18] was > 100 µM (inactive) throughout. In addition, the GI50 in test [8], in test [9], in [10], in test [19], in [11] and in test [12] was > 100 µM (inactive) throughout. In addition, the GI50 in test [13], in [14], in [15], in test [16] and in test [17] was > 100 µM (inactive) each time.
Turning to `CC12CCCC3(CC(=O)C(C)(C)C3C(=O)C1)C2` (centres undefined), the GI50 in test [1], in [2], in test [3], in test [4], in [5] and in [6] was > 100 µM (inactive) in each case. Moreover, the GI50 in test [20], in test [9], in test [10], in [19], in test [11] and in test [12] was > 100 µM (inactive) each time. The GI50 in test [13], in [14], in [15], in test [16] and in test [17] was > 100 µM (inactive) each time.
`COc1ccc2c(c1OC)C(=O)N/C2=C\c1c(CCN(C)C)cc2c(c1OC)OCO2`: the GI50 was > 100 µM (inactive) in test [1]; > 100 µM (inactive) in test [2]; > 100 µM (inactive) in [4]; 13.6 µM (inactive) in test [5]; > 100 µM (inactive) in test [6]; > 100 µM (inactive) in test [18]. Also, the GI50 in test [7] is > 100 µM (inactive); in [8] it was 41.1 µM (inactive); in test [9], > 100 µM (inactive); in [19], > 100 µM (inactive); in test [11] it was > 100 µM (inactive); in test [12] it was 25.6 µM (inactive). The GI50 is 43.7 µM (inactive) in test [13], > 100 µM (inactive) in test [14] and > 100 µM (inactive) in [15].
As to `CC(c1ccccc1)N1CCN(C(C)c2ccccc2)CC1` (centres undefined), the GI50 was > 100 µM (inactive) in test [1]; 29 µM (inactive) in [2]; 40.8 µM (inactive) in [3]; > 100 µM (inactive) in test [5]; 35.8 µM (inactive) in test [6]; > 100 µM (inactive) in test [20]. Also, the GI50 in test [18] is 20.1 µM (inactive); in test [8], > 100 µM (inactive); in test [9] it was 39.5 µM (inactive); in [10] it was > 100 µM (inactive); in [11], > 100 µM (inactive); in test [12], 45.6 µM (inactive). Further, the GI50 in test [13] was > 100 µM (inactive); in test [14], > 100 µM (inactive); in test [15] it was > 100 µM (inactive); in [16] it was > 100 µM (inactive); in test [17], 35.2 µM (inactive).
On to `C/C=C1/CN2CCC34c5ccccc5N(C)C23C2CC1C4(C(=O)OC)C(O)O2` (centres undefined), for which the GI50 in test [1], in [2], in test [3], in test [4], in test [5] and in test [20] was > 100 µM (inactive) throughout. In addition, the GI50 in test [18], in [7], in [8], in test [9], in test [10] and in test [19] was > 100 µM (inactive) throughout. For the same molecule, the GI50 in [11], in test [12], in [13], in test [14], in test [15] and in test [16] was > 100 µM (inactive) each time. Besides, the GI50 in [17] was > 100 µM (inactive).
As for `c1ccc2c(c1)Nc1cccc3c1c-2nc1cc2ccccc2cc13`, the GI50 was 1.53 µM (inactive) in [1]; 1.74 µM (inactive) in [2]; 2.12 µM (inactive) in test [3]; 1.64 µM (inactive) in test [4]; 2.24 µM (inactive) in [5]; 1.55 µM (inactive) in test [20]. In addition, the GI50 in test [18] is 1.72 µM (inactive); in test [7], 1.8 µM (inactive); in [8] it was 1.1 µM (active); in [10], 1.64 µM (inactive); in [19] it was 1.56 µM (inactive); in [11], 1.69 µM (inactive). Besides, the GI50 was 1.45 µM (inactive) in test [12]; 1.6 µM (inactive) in test [13]; 1.87 µM (inactive) in test [14]; 2.03 µM (inactive) in test [15]; 2.2 µM (inactive) in test [16]; 1.48 µM (inactive) in test [17].
For the molecule `Cc1ccc(/N=N/c2c(C)c(C#N)c(=S)n(C3OC(CO)C(O)C(O)C3O)c2-c2ccccc2)cc1` (centres undefined), the GI50 in test [1] is 30.7 µM (inactive); in [2], 16.5 µM (inactive); in [3], 14.5 µM (inactive); in test [4], 34.1 µM (inactive); in [5] it was 24.5 µM (inactive); in test [20] it was 17.2 µM (inactive). Further, the GI50 in test [18] was 41.1 µM (inactive); in [7], 28.5 µM (inactive); in [8], 40 µM (inactive); in test [9], 9.73 µM (inactive); in test [10] it was 25.7 µM (inactive); in [19], 18.2 µM (inactive). Also, the GI50 in [11] is 31.4 µM (inactive); in test [12], 8.07 µM (inactive); in test [13], 20.5 µM (inactive); in test [14] it was 29.5 µM (inactive); in [15], 14.4 µM (inactive); in test [16], 29 µM (inactive). Also, in [17], the GI50 is 19.5 µM (inactive).
On to `CN1CCN(C(=S)N(C)C(=O)c2ccco2)CC1`, for which the GI50 in test [1], in [3], in test [5], in test [6], in test [20] and in test [18] was > 100 µM (inactive) throughout. The GI50 in test [8], in [9], in test [19], in [11], in test [12] and in test [13] was > 100 µM (inactive) in each case. For the same molecule, the GI50 in test [14], in [15] and in test [17] was > 100 µM (inactive) throughout.
As for `CCOC(=O)c1nc2cc(C(F)(F)F)ccc2nc1Nc1ccc(C(=O)NC(C(=O)OCC)C(=O)OCC)cc1`, the GI50 was 23.3 µM (inactive) in test [1]; 14.1 µM (inactive) in test [2]; 11.5 µM (inactive) in [3]; 22.2 µM (inactive) in test [4]; 12.4 µM (inactive) in test [5]; 46.9 µM (inactive) in test [6]. For the same molecule, the GI50 is 54.2 µM (inactive) in [20]; 49.4 µM (inactive) in test [18]; 17.4 µM (inactive) in [8]; > 100 µM (inactive) in test [9]; 19 µM (inactive) in test [10]; 19.5 µM (inactive) in [19]. Besides, the GI50 in test [11] is 18.9 µM (inactive); in test [12] it was > 10 µM (inactive); in test [13], 15.5 µM (inactive); in test [14], 24.7 µM (inactive); in [15], 14 µM (inactive); in test [17], 52.5 µM (inactive).
Regarding `O=C(O)C1CCCCC1c1c2ccc(=O)c(O)c-2oc2c(O)c(O)ccc12` (centres undefined), the GI50 is 14 µM (inactive) in [1]; 69.5 µM (inactive) in [2]; 23.6 µM (inactive) in test [3]; 50.6 µM (inactive) in test [4]; 4.44 µM (inactive) in test [5]; 27.5 µM (inactive) in [6]. The GI50 was 13.8 µM (inactive) in test [20]; 18.6 µM (inactive) in test [8]; 22.8 µM (inactive) in test [9]; 65.6 µM (inactive) in [10]; 14.2 µM (inactive) in [19]; 19.3 µM (inactive) in test [11]. Also, the GI50 in test [12] is 17.2 µM (inactive); in test [13] it was 23.7 µM (inactive); in [14], > 100 µM (inactive); in test [15], 7.4 µM (inactive); in test [17], > 100 µM (inactive).

Source of the values: ChEMBL document CHEMBL1201862, “PubChem BioAssay data set” (2004).
